# Experimental data reported in patent US6713266B1 (Isodiagnostika Inc., priority 1998, dated 2004).
# “And” between values parts separate entries of the source, which are not always exact repeats. Identical values can stand only once.
# Tests used:
# [1] = test system: MoAb CSA-2G9; assay: Inhibition ELISA to the CSA-DVS-HSA conjugate, MoAb; format: binding, mouse
# Method: (§1) Inhibition ELISA Protocol:
# (§2) 1. Use Falcon Pro-bind immunoplates.
# (§3) 2. Dilute coating antigen to 1 μg/mL in carbonate-bicarbonate buffer. Add 100 μL per well and incubate overnight at 4° C.
# (§4) 3. On the same day prepare inhibiting antigen tubes. Aliquot antibodies into glass test tubes. Prepare appropriate antigen concentration in ethanol and add to aliquoted antibody at 10 μL ethanol solution/250 μL antibody. Vortex tubes and incubate overnight at 4° C.
# (§5) 4. Shake out wells and wash 3× with 200 μL PBS/0.05% TWEEN™ (polyoxyethylene-sorbitol) (v/v) per well.
# (§6) 5. Add 200 μL blocking buffer per well (PBS/2% BSA (w/v)). Incubate 60 min at room temperature.
# (§7) 7. Transfer contents of inhibition tubes to antigen-coated plate, 100 μL per well. Incubate 60 min at 37° C.
# (§8) 9. Dilute alkaline phosphatase conjugated anti-mouse IgG (Pierce cat#31322) in PBS/0.1% TWEEN™ (polyoxyethylene-sorbitol) (v/v) to 1:5000 concentration. Add 100 μL per well and incubate at 37° C. for 60 min.
# (§9) 11. […] Add 100 μL per well and incubate in the dark at room temperature. Absorbance can be read at 405 nm at approximately 15-min intervals.
# [2] = test system: MoAb CSA-1H6; assay: as above; format: binding, mouse
# Method: as §1, §2, §3, §4, §5, §6, §7, §8, §9
# [3] = test system: MoAb AM1-7F5; assay: as above; format: binding, mouse
# Method: as §1, §2, §3, §4, §5, §6, §7
# (§10) 9. […] Add 100 μL per well and incubate at 37° C. for 60 min.
# as §9
# [4] = test system: MoAb AM1-2E10; assay: as above; format: binding, mouse
# Method: as §1, §2, §3, §4, §5, §6, §7, §10, §9
# [5] = test system: Rabbit polyclonal sera (AM19-1-DVS-KLH (1) immunogen); assay: Inhibition ELISA, AM19-1-DVS (1) HSA coated plate, rabbit polyclonal sera; format: binding
# Method: as §1, §2, §3, §4, §5, §6, §7, §10, §9
# The AM19-1-DVS (1) conjugate was also used to immunize rabbits.
# [6] = test system: Mouse polyclonal sera (AM9-9-DVS-KLH immunogen); assay: Inhibition ELISA, AM19-9-DVS-HSA coated plate, mouse polyclonal sera; format: binding
# Method: as §1, §2, §3, §4, §5, §6, §7, §10, §9
# [7] = test system: Mouse polyclonal sera (AM19-9-DVS-KLH immunogen); assay: Inhibition ELISA, AM19-9-DVS-HSA coated plates, mouse polyclonal sera; format: binding
# Method: as §1, §2, §3, §4, §5, §6, §7, §10, §9
# [8] = test system: Mouse polyclonal sera (AM19-1-DVS (1) - KLH immunogen); assay: Inhibition ELISA, AM19-1-DVS (1) HSA coated plate, mouse polyclonal sera; format: binding
# Method: as §1, §2, §3, §4, §5, §6, §7, §10, §9
# [9] = test system: MoAb AM19-1-7E12-2; assay: Inhibition ELISA with AM19-1-DVS (1) coated ELISA plates, MoAb; format: binding, mouse; settings: AM19-1-7F12-2
# Method: as §1, §2, §3, §4, §5, §6, §7, §10, §9
# [10] = test system: MoAb AM19-1-7E12-1; assay: as above; format: binding, mouse; settings: AM19-1-7E12-1 TCS
# Method: as §1, §2, §3, §4, §5, §6, §7, §10, §9
# [11] = test system: Mouse polyclonal sera (CSA-DVS-KLH immunogen); assay: Inhibition ELISA, CSA-DVS-HSA coated plate, mouse polyclonal sera; format: binding; settings: Mouse sera; Table 3; inhibition ELISA to the CSA-DVS-HSA conjugate
# Method: as §1, §2, §3, §4, §5, §6, §7, §10, §9
# [12] = test system: Mouse polyclonal sera (AM19-1-DVS (2) - KLH immunogen); assay: Inhibition ELISA, AM19-1-DVS (2) HSA coated plate, mouse polyclonal sera; format: binding
# Method: as §1, §2, §3, §4, §5, §6, §7, §10, §9
# [13] = test system: Mouse polyclonal sera (AM1-DVS-KLH immunogen); assay: Inhibition ELISA to the CSA-DVS-HSA conjugate, mouse polyclonal sera; format: binding
# Method: as §1, §2, §3, §4, §5, §6, §7, §10, §9
smiles,measurement,setting,value
"C/C=C/C[C@@H](C)[C@@H](O)[C@H]1C(=O)N[C@@H](CCC)C(=O)N(C)CC(=O)N(C)[C@@H](CC(C)C)C(=O)N[C@@H](C(C)C)C(=O)N(C)[C@@H](CC(C)C)C(=O)N[C@@H](C)C(=O)N[C@H](C)C(=O)N(C)[C@@H](CC(C)C)C(=O)N(C)[C@@H](CC(C)C)C(=O)N(C)[C@@H](C(C)C)C(=O)N1C [CSG, cyclosporine G]",Percent Inhibition,"[1]; CSA-2G9, Table 24, CSA, CSG and CSA derivative inhibitors",89.8%
same,Percent Inhibition,"[2]; CSA-1H6, Table 24, CSA, CSG and CSA derivative inhibitors",88.6%
same,Percent Inhibition,"[3]; AM1-7F5, Table 24, CSA, CSG and CSA derivative inhibitors",28.8%
same,Percent Inhibition,"[4]; AM1-2E10, Table 24, CSA, CSG and CSA derivative inhibitors",61% and 61.2%
"C=CC[C@@H]1/C=C(\C)C[C@H](C)C[C@H](OC)[C@H]2O[C@@](O)(C(=O)C(=O)N3CCCC[C@H]3C(=O)O[C@H](/C(C)=C/[C@@H]3CC[C@@H](O)[C@H](OC)C3)[C@H](C)[C@@H](O)CC1=O)[C@H](C)C[C@@H]2OC [FK, tacrolimus]",Percent Inhibition,[5],0%
same,Percent Inhibition,[6]; Mouse 1,24.2%
same,Percent Inhibition,[6]; Mouse 2,34.5%
same,Percent Inhibition of TCS,"[1]; CSA-2G9 TCS, Table 16, CSA-DVS-HSA conjugate",10.8%
same,Percent Inhibition of TCS,"[2]; CSA-1H6 TCS, Table 16, CSA-DVS-HSA conjugate",0%
same,Percent Inhibition of TCS,"[3]; AM1-7F51, TCS, Table 18, CSA-DVS-HSA coated plate",26.0%
same,Percent Inhibition of TCS,"[4]; AM1-2E10 TCS, Table 18, CSA-DVS-HSA coated plate",0%
same,Percent Inhibition,[7]; Mouse 5,0%
same,Percent Inhibition,[7]; Mouse 6,0%
same,Percent Inhibition,[8]; Mouse 1,0%
same,Percent Inhibition,[8]; Mouse 2,0%
same,Percent Inhibition of TCS,[9],3.2%
same,Percent Inhibition of TCS,[10],6.3%
same,Percent Inhibition,[11],31.9%
same,Percent Inhibition,[12]; Mouse 3,0%
same,Percent Inhibition,[12]; Mouse 4,0%
same,Percent Inhibition,[13]; Mouse 1,3.5%
same,Percent Inhibition,[13]; Mouse 2,13.0%
